# Source: patent US20130225424A1, “METHODS FOR DETERMINING RESPONSIVENESS TO A DRUG BASED UPON DETERMINATION OF RAS MUTATION AND/OR RAS AMPLIFICATION” (Targeted Molecular Diagnostics, LLC, priority 2010, published 2013)
# Key:
# [1] = tested on: K-RAS mutant (A549, NCI-H460 & NCI-H23) NSCLC cells; test: Cyquant Direct proliferation assay, K-RAS mutant NSCLC cells; assay type: cell-based; conditions: 0-10 μM, 72 hours
# Procedure: (§1) Additionally, a variety of NSCLC cell lines that were K-RAS mutant (A549, NCI-H460 & NCI-H23), K-RAS mutant/amplified (NCI-H727 & NCI-H2009) and K-RAS wild-type (Calu-3, NCI-H650 & NC-H661) NSCLC cells were plated in 96 well plates treated and treated 24 hours later with multiple concentrations of Methotrexate (0-10 μM). After an additional 72 hours cells were assayed for proliferation using the Invitrogen Cyquant Direct™ proliferation assay. IC50 (inhibitory concentration that kills 50% of cells) was determined using graphpad software. Cells were treated in triplicate and cell numbers were calculated as percent untreated control.
# [2] = tested on: K-RAS mutant/amplified (NCI-H727 & NCI-H2009) NSCLC cells; test: Cyquant Direct proliferation assay, K-RAS mutant/amplified NSCLC cells; assay type: cell-based; conditions: 0-10 μM, 72 hours
# Procedure: as §1
# [3] = tested on: K-RAS wild-type (Calu-3, NCI-H650 & NC-H661) NSCLC cells; test: Cyquant Direct proliferation assay, K-RAS wild-type NSCLC cells; assay type: cell-based; conditions: K-RAS wild-type cells Calu-3, NCI-H650 & NC-H661; 0-10 μM; 72 hours
# Procedure: as §1
# A549 cells = test: RT-PCR gene/protein expression after Methotrexate treatment, K-RAS mutant cells; assay type: cell-based; conditions: 0.1 μM, 72 hours after treatment, normalized to Beta-2-Macroglobulin
# Procedure: (§2) Finally, expression of genes/proteins related to folate metabolism and cell cycle progression were examined in K-RAS mutant and K-RAS wild-type NSCLC cells with Methotrexate treatment and K-RAS overexpression or knockdown. Briefly, A549 cells were treated with Methotrexate at a concentration of 0.1 μM. 72 hours after treatment, total RNA was extracted from treated and untreated cells. RT-PCR was then performed on extracted RNA to determine gene expression of K-RAS, Dihydrofolate Reductase (DHFR), Thymidylate Synthase (TYMS) and E2F1. Gene expression was normalized to […] as an internal control.
# [4] = tested on: K-RAS wild-type NSCLC cells; test: Gene/protein expression after Methotrexate treatment, K-RAS wild-type cells; assay type: cell-based
# Procedure: as §2
# H460 cells = test: H460 tumors implanted in mice, cleaved caspase-3 staining; assay type: in vivo; conditions: H460 tumors approx. 500 mg; 130 mg/kg Q4Dx3 IP; harvested 10 days after treatment; cleaved caspase-3 stain
# Source text: Tumors were then harvested 10 days after treatment, fixed in formalin and stained for cleaved caspase-3. Next, bright-field pictures were taken at 40× (see, FIG. 4).
structure (smiles),measurement,setting,value
CN(Cc1cnc2nc(N)nc(N)c2n1)c1ccc(C(=O)N[C@@H](CCC(=O)O)C(=O)O)cc1 [Methotrexate],sensitivity to Methotrexate (proliferation),[1],sensitive
same,sensitivity to Methotrexate (proliferation),[2],sensitive
same,sensitivity to Methotrexate (proliferation),[3],not sensitive
same,"Expression of DHFR, TS, E2F-1, phosphorylated Rb and mutant K-RAS",A549 cells,decreased
same,"Expression of DHFR, TS, E2F-1, phosphorylated Rb and mutant K-RAS decreased",[4],not
same,sensitivity (responsiveness) of tumors with K-Ras mutant cells,H460 cells,sensitive
